Experiments:
human PAI-1 = human PAI-1 (Homo sapiens, UniProt P05121); assay: Assay for determining the IC50 of inhibition of PAI-1 (active PAI-1 bound to tPA-coated plate, 33B8 antibody detection); type: biochemical; settings: human PAI-1 50 ng/ml, pH 7.5
Experimental: Assay for determining the IC50 of inhibition of PAI-1. This assay is based upon the non-SDS dissociable interaction between tPA and active PAI-1. Assay plates are initially coated with human tPA (10 μg/ml). Test compounds are dissolved in DMSO at 10 mM, then diluted with physiologic buffer (pH 7.5) to a final concentration of 1-50 μM. The test compounds are incubated with human PAI-1 (50 ng/ml) for 15 minutes at room temperature. The tPA-coated plate is washed with a solution of 0.05% Tween 20 and 0.1% BSA, then the plate is blocked with a solution of 3% BSA. An aliquot of the test compound/PAI-1 solution is then added to the tPA-coated plate, incubated at room temperature for 1 hour, and washed. Active PAI-1 bound to the plate is assessed by adding an aliquot of a 1:1000 dilution of the 33B8 monoclonal antibody against human PAI-1, and incubating the plate at room temperature for 1 hour (Molecular Innovations, Royal Oak, Mich.). The plate is again washed, and a solution of goat anti-mouse IgG-alkaline phosphatase conjugate is added at a 1:50,000 dilution in goat serum. The plate is incubated 30 minutes at room temperature, washed, and a solution of alkaline phosphatase substrate is added. The plate is incubated 45 minutes at room temperature, and color development is determined at OD405 nm. The quantitation of active PAI-1 bound to tPA at varying concentrations of the test compound is used to determine the IC50. Results are analyzed using a logarithmic best-fit equation. The assay sensitivity is 5 ng/ml of human PAI-1 as determined from a standard curve ranging from 0-100 ng/ml.

human PAI-1, sequence (P05121 24-402): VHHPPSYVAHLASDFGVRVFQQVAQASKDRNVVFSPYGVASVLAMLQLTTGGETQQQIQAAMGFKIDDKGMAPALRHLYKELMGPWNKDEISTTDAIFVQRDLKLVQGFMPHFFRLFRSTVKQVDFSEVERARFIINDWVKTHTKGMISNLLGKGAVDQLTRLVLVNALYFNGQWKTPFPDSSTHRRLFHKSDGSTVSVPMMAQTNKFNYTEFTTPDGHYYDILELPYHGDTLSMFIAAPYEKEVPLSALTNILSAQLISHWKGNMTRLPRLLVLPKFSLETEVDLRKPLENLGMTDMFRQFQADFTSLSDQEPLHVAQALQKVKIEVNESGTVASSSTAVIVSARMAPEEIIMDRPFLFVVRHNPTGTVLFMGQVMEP

| melting point | IC50 (human PAI-1) | SMILES |
| --- | --- | --- |
| 148.1 to 150.1 °C | 17.8 µM | CC(C)(C)c1ccc(/C=N/OCCOc2ccc(C(=O)O)c(OC(=O)c3ccc(C(C)(C)C)cc3)c2)cc1 [Compound 10, 2-{[4-(tert-Butyl)benzoyl]oxy}-4-{2-[({(E)-[4-(tert-butyl)phenyl]methylidene}amino)oxy]ethoxy}benzoic Acid] |
| 157.5 to 159.1 °C | 18.9 µM | C/C(=N\OCCOc1ccc(C(=O)O)c(OC(=O)c2ccc(-c3ccccc3)cc2)c1)c1ccccc1 [Compound 15, 2-[([1,1′-Biphenyl]-4-ylcarbonyl)oxy]-4-[2-({[(E)-1-phenylethylidene]amino}oxy)ethoxy]benzoic Acid] |
| 181.9 to 183.4 °C | 4.14 µM | O=C(O)c1ccc(OCCCO/N=C/c2cc(C(F)(F)F)cc(C(F)(F)F)c2)cc1O [Compound 19, 4-{3-[({(E)-[3,5-Bis(trifluoromethyl)phenyl]methylidene}amino)oxy]propoxy}-2-hydroxybenzoic Acid] |
| 149.4 to 151 °C | 16.3 µM | CC/C(=N\OCCCOc1ccc(C(=O)O)c(NC(=O)c2ccc(C(F)(F)F)cc2)c1)c1ccc(C(C)(C)C)cc1 [Compound 21, 4-[3-({[(1E)-1-(4-tert-butylphenyl)propylidene]amino}oxy)propoxy]-2-{[4-(trifluoromethyl)benzoyl]amino}benzoic Acid] |
| 208.6 to 209.6 °C | 4.14 µM | O=C(Nc1cc(OCCCO/N=C/c2ccc(C(F)(F)F)cc2)ccc1C(=O)O)c1ccc(C(F)(F)F)cc1 [Compound 22, 2-{[4-(Trifluoromethyl)benzoyl]amino}-4-{3-[({(1E)-[4-(trifluoromethyl)phenyl]methylidene}amino)oxy]propoxy}benzoic Acid] |
| 121.1 to 122 °C | 17.5 µM | CC(C)(C)c1ccc(/C=N/OCCCOc2ccc(C(=O)O)c(NC(=O)c3ccccc3C(F)(F)F)c2)cc1 [Compound 24, 4-[3-({[(1E)-(4-tert-Butylphenyl)methylidene]amino}oxy)propoxy]-2-{[2-(trifluoromethyl)benzoyl]amino}benzoic acid] |
| 147.2 to 147.9 °C | 26.8 µM | O=C(O)c1ccc(OCCCO/N=C/c2ccc(C(F)(F)F)cc2)cc1NC(=O)c1ccccc1C(F)(F)F [Compound 25, 2-{[2-(Trifluoromethyl)benzoyl]amino}-4-{3-[({(1E)-[4-(trifluoromethyl)phenyl]methylidene}amino)oxy]propoxy}benzoic acid] |
| 157.5 to 158.5 °C | 15.7 µM | CC(C)(C)c1ccc(/C=N/OCCCOc2ccc(C(=O)O)c(NC(=O)c3cc(C(F)(F)F)cc(C(F)(F)F)c3)c2)cc1 [Compound 27, 2-{[3,5-Bis(trifluoromethyl)benzoyl]amino}-4-[3-({[(1E)-(4-tert-butylphenyl)methylidene]amino}oxy)propoxy]benzoic Acid] |
| 205 to 206 °C (dec.) | 19.6 µM | O=C(Nc1cc(OCCCO/N=C/c2ccc(-c3ccccc3)cc2)ccc1C(=O)O)c1cc(C(F)(F)F)cc(C(F)(F)F)c1 [Compound 31, 4-[3-({[(1E)-1,1′-Biphenyl-4-ylmethylidene]amino}oxy)propoxy]-2-{[3,5-bis(trifluoromethyl)benzoyl]amino}benzoic Acid] |
| 218 to 219 °C (dec.) | 15.8 µM | O=C(Nc1cc(OCCCO/N=C/c2ccc(C(F)(F)F)cc2)ccc1C(=O)O)c1cc(C(F)(F)F)cc(C(F)(F)F)c1 [Compound 32, 2-{[3,5-Bis(trifluoromethyl)benzoyl]amino}-4-{3-[({(1E)-[4-(trifluoromethyl)phenyl]methylidene}amino)oxy]propoxy}benzoic Acid] |
| 162 to 163 °C | 13.8 µM | CC(C)(C)c1ccc(/C=N/OCc2ccc(C(=O)O)c(Br)c2)cc1 [Compound 33, 2-Bromo-4-[({[(1E)-(4-tert-butylphenyl)methylidene]amino}oxy)methyl]benzoic Acid] |
